Laboratory results published in patent publication US10875861B1, “Therapeutic compounds” (Rutgers, The State University of New Jersey, priority 2017, dated 2020).
Structures can show the parent of a compound that is named as a salt. One block for each compound: values may come before it.

Legend:
[1] = tested on: BMI-1 and αENaC mRNA; experiment: mRNA expression of BMI-1 and αENaC on concomitant treatment with cyclohexamide; type: cell-based; details: RU-A15 100 nM, RU-A16 200 nM, concomitant with CHX
Protocol: Next, to test if Examples 3 and 4 are selective for BMI-1 RNA, cells were concomitantly treated with RU-A15/16 (100 nM, 200 nM, respectively) and cyclohexamide (CHX), a general translational inhibitor, and analyzed mRNA expression of BMI-1 and the CHX-specific target epithelial sodium channel (αENaC).

[2] = tested on: BMI-1 and ubiquitinated histone H2A in primary glioblastoma cells; experiment: Modulation / dynamics of BMI-1 and downstream targets in GBM cells (Western blotting); type: cell-based, human
Protocol: Different GBM cells were treated with DMSO or different concentrations of the B compounds for 72 hours. Cells were lysed in Cell Lysis Buffer (Cell Signaling, #9803) supplemented with Protease Inhibitor Cocktail (Sigma, #P8340), spun down for 30 minutes at 4° C., after which the supernatant was collected at every time point indicated. Western blotting analysis was performed on all samples as described above. BMI-1 loss started at 6-12 h, coinciding with an upper shift and hyper-phosphorylation of BMI-1 at 12-24 h and complete depletion at 72 h.
To study the compound dynamic activity against GBM spheres, GBMs were tested with exemplary compounds. Different GBM cells were treated with DMSO or different concentrations of the inhibitors for 72 hours. Cells were lysed in Cell Lysis Buffer (Cell Signaling, #9803) supplemented with Protease Inhibitor Cocktail (Sigma, #P8340), spun down for 30 minutes at 4° C., after which the supernatant was collected at every time point indicated. Western blotting analysis was performed on all samples as described above. […] BMI-1 loss started at 6-12 h, coinciding with an upper shift and hyper-phosphorylation of BMI-1 at 12-24 h and complete depletion at 72 h. […] This is expected since BMI-1 is known to suppress p21. BMI-1 inhibition could be reversed using phosphatase treatment, moreover, when proteasomal inhibitor is added to treated cells after 24 h, BMI-1 is locked in the phosphorylated state, therefore showing that the phosphorylation event precedes BMI-1 degradation. The phosphorylation was independent of p38 kinase activation, as when we added […], the p38 inhibitor to the cultured cells upon treatment with the BMI-1 inhibitor, the combined treatment could not reverse the effects of RU-A15 on BMI-1 inhibition.

[3] = tested on: BMI-1 5'UTR; experiment: Luciferase plasmid containing the BMI-1 5'UTR with or without binding pocket; type: cell-based
Protocol: Since translation initiation is dependent on RNA folding, the 3D folding of the BMI-1 5′UTR was examined. To identify sequences that fold into a target minimum and maximum free energy (MFE) secondary structure, inverse RNA folding of the BMI-1 5′UTR was performed using the mFold server. A highly probable, probability annotated group of secondary structures were identified, starting with the MFE, centroid energy structures and including fourteen other probabilities. […] In a luciferase plasmid containing the BMI-1 5′UTR, the sequences of the pocket region that contains the potential binding site was removed by cutting with compatible restriction enzymes and re-ligating the plasmid. The luciferase activity was examined with the luc plasmids or without the binding pocket upon treatment with the inhibitors. […] Thus, RU-A15/A16 engages with the BMI-1 UTR regulatory mechanisms.

[4] = tested on: glioblastoma cancer cell line; experiment: MTT viability assay with glioblastoma cancer cell line (Test A); type: cell-based, human; details: for EC50: Homo sapiens, 72 hours
Excerpt: To generate primary patient-derived GBM models for testing small molecule inhibitors, fresh primary tissues were received from patients undergoing surgical resection of WHO grade IV gliomas at Robert Wood Johnson University Hospital (RWJUH) under an approved IRB protocol. De-identified primary human GBM samples were delivered to the laboratory. Cells were obtained through mechanical dissociation of the tumor tissue using a blade and plated in DMEM/F12 medium (Gibco) in the presence of B-27 Supplement (Gibco, #17504-044), 20 ng/ml of human recombinant EGF (Gibco, #PHG0311L) and human recombinant FGF (Peprotech, #AF-100-18B). The following day, the culture was collected, incubated with Accutase (Gibco, #A11105-01) at 37° C. and passed through a 26G×⅜ needle (BD Precision Glide, #305110) to obtain a single cell suspension and re-plated in the same supplemented medium. Cells were cultured at low (5-6) passages in serum-free sphere 3D culture with mitogens that preserve the clonogenic stemness phenotype. […] different primary GBM cells (GBM #46, GBM #50, and GBM #76) were tested for cell viability after treatment with the inhibitors. Cell viability was measured using MTT assay. Briefly, one thousand cells per well were seeded in 96-well plates and exposed to drug in a total of 200 uL media. After 72 hours, 50 uL of stock concentration of 2.5 mg/mL 3-(4,5-dimethylthiazol-2-yl)-2,5-diphenyltetrazolium bromide (MTT) (Sigma, #M2128) dissolved in PBS was added to wells and incubated at 37° C. for 4 hours; read in a […] plate reader at 570 nm and compared to DMSO and untreated cells. The IC50 (defined as the concentration at which 50% of the cells were viable) was determined from the curve.
Accordingly, compounds of the invention may be useful as therapeutic agents for the treatment of cancer.
To generate primary patient-derived GBM models for testing small molecule inhibitors, fresh primary tissues were received from patients undergoing surgical resection of WHO grade IV gliomas at Robert Wood Johnson University Hospital (RWJUH) under an approved RB protocol. De-identified primary human GBM samples were delivered to the laboratory. Cells were obtained through mechanical dissociation of the tumor tissue using a blade and plated in DMEM/F12 medium (Gibco) in the presence of B-27 Supplement (Gibco, #17504-044), 20 ng/ml of human recombinant EGF (Gibco, #PHG0311L) and human recombinant FGF (Peprotech, #AF-100-18B). […] Cell viability was measured using MTT assay. […] After 72 hours, 50 uL of stock concentration of 2.5 mg/mL 3-(4,5-dimethylthiazol-2-yl)-2,5-diphenyltetrazolium bromide (MTT) (Sigma, #M2128) dissolved in PBS was added to wells and incubated at 37° C. for 4 hours; read in a […] plate reader at 570 nm and compared to DMSO and untreated cells. […]

[5] = tested on: U87 glioblastoma cells; experiment: Comparison of Example 3 and PTC-209 in U87 glioblastoma cells (cell viability); type: cell-based; details: 72 hours
Excerpt: BMI-1 inhibitors were developed by the Molecular Design and Synthesis laboratory, Rutgers Translational Sciences at Rutgers University, NJ, USA. […] (Generic name is PTC-209) was characterized among a screen for post-transcriptional inhibitors of BMI-1. Zebrafish embryo toxicology assays were used to select RU-A compounds with no embryonic toxicity in vivo (a surrogate assay for toxic effects on normal stem cells). […] Cells were counted using Beckman Coulter Vi-CELL Cell Viability Analyzer, and cell viability was confirmed by CellTiter-Glo Luminescent Cell Viability Assay (Promega, Madison, Wis., USA) according to standard protocols and analyzed with a Victor 2 plate reader (Wallac, Turku, Finland).

[6] = primary glioblastoma cells, Western blotting

EC50 [4]: 1 µM
SMILES: Cc1c(-c2csc(Nc3ccc(N(C)C)cc3)n2)nc2ncccn12 [Example B2, N^1,N^1-dimethyl-N^4-(4-(3-methylimidazo[1,2-a]pyrimidin-2-yl)thiazol-2-yl)benzene-1,4-diamine]
modulation of ubiquitinated histone H2A (Test B) ([2]; GBM cells, B compounds, 72 hours): modulation of downstream target ubiquitinated histone H2A

EC50 [4]: 20 µM
SMILES: COc1ccc(Nc2nc(-c3nc4ccccn4c3C)cs2)cc1 [Example B3, N-(4-methoxyphenyl)-4-(3-methylimidazo[1,2-a]pyridin-2-yl)thiazol-2-amine]

IC50 [5]: 10 µM
SMILES: COc1cc(Br)c(Nc2nc(-c3c(C)nc4ncccn34)cs2)c(Br)c1 [PTC-209, reference compound]

Second part, the compound before the results:

SMILES: C[C@@H]1C[C@@H]([C@H](O)CC2CC(=O)NC(=O)C2)C(=O)[C@@H](C)C1 [CHX, cyclohexamide, reference compound]
BMI-1 mRNA expression [1]: lowered mRNA levels
αENaC mRNA expression [1]: lowered mRNA levels

SMILES: Cc1nc2ccccn2c1-c1csc(Nc2ccc3c(c2)OCO3)n1 [Example 4, N-(benzo[d][1,3]dioxol-5-yl)-4-(2-methylimidazo[1,2-a]pyridin-3-yl)thiazol-2-amine hydrobromide]
CDK inhibitor p21 ([2]; GBM#46 and #50): induced upregulation of the CDK inhibitor p21
BMI-1 protein levels [2, 6]: inhibit BMI-1
WT p53 levels [2, 6]: increase WT p53 levels
ubiquitin H2A [2, 6]: inhibit ubiquitin H2A
normalized luc, BMI-1 5'UTR with intact binding pocket ([3]; intact minor groove potential binding pocket): significantly reduced normalized luc
normalized luc, binding pocket sequences removed ([3]; pocket sequences removed): not when the pocket sequences were removed
BMI-1 mRNA expression [1]: did not inhibit
αENaC mRNA expression [1]: did not inhibit

SMILES: Cc1c(-c2csc(Nc3ccc(N(C)C)cc3)n2)nc2ccccn12 [Example B4, N^1,N^1-dimethyl-N^4-(4-(3-methylimidazo[1,2-a]pyridin-2-yl)thiazol-2-yl)benzene-1,4-diamine]
EC80 ([4]; cell marked (EC80) in the EC50 column): 20 (EC80) μM
